Source: the kinase profiling compilation of Christmann-Franck et al. (2016)

target: MKNK2 (human) (UniProt Q9HBH9); assay: radiometric filter-binding kinase assay, Kinase HotSpot; conditions: compound 0.5 µM; ATP 10 µM

| SMILES | residual activity [%] |
| --- | --- |
| Nc1ncnc2c1cnn2-c1ccccc1 | 72.7 |
| O=C(c1ccccc1)c1ccc(N2CCOCC2)cc1O | 90.6 |
| c1ccc(-c2cnc(Nc3ccc(OCCN4CCCC4)cc3)s2)cc1 | 18.6 |

target: MST1R (human) (UniProt Q04912); assay: as above; conditions: compound 0.5 µM; ATP 10 µM

| SMILES | residual activity [%] |
| --- | --- |
| Nc1ncnc2c1cnn2-c1ccccc1 | 100 |
| O=C(c1ccccc1)c1ccc(N2CCOCC2)cc1O | 106 |
| c1ccc(-c2cnc(Nc3ccc(OCCN4CCCC4)cc3)s2)cc1 | 107 |

target: MST4 (human) (UniProt Q9P289); assay: as above; conditions: compound 0.5 µM; ATP 10 µM

| SMILES | residual activity [%] |
| --- | --- |
| Nc1ncnc2c1cnn2-c1ccccc1 | 82.2 |
| O=C(c1ccccc1)c1ccc(N2CCOCC2)cc1O | 101 |
| c1ccc(-c2cnc(Nc3ccc(OCCN4CCCC4)cc3)s2)cc1 | 101 |

target: NEK7 (human) (UniProt Q8TDX7); assay: as above; conditions: compound 0.5 µM; ATP 10 µM
Sequence (Q8TDX7 whole entry, looked up): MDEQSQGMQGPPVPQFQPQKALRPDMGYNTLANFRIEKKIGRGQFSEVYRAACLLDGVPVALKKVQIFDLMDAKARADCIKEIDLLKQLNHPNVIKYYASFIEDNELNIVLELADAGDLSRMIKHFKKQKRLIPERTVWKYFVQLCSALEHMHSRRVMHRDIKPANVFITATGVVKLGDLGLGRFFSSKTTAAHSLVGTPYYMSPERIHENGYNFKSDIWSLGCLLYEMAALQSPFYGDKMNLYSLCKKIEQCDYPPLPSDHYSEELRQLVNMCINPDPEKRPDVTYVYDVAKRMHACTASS

| SMILES | residual activity [%] |
| --- | --- |
| Nc1ncnc2c1cnn2-c1ccccc1 | 106 |
| O=C(c1ccccc1)c1ccc(N2CCOCC2)cc1O | 104 |
| c1ccc(-c2cnc(Nc3ccc(OCCN4CCCC4)cc3)s2)cc1 | 100 |

target: NUAK2 (human) (UniProt Q9H093); assay: as above; conditions: compound 0.5 µM; ATP 10 µM

| SMILES | residual activity [%] |
| --- | --- |
| Nc1ncnc2c1cnn2-c1ccccc1 | 75.2 |
| O=C(c1ccccc1)c1ccc(N2CCOCC2)cc1O | 111 |
| c1ccc(-c2cnc(Nc3ccc(OCCN4CCCC4)cc3)s2)cc1 | 107 |

target: PAK1 (human) (UniProt Q13153); assay: as above; conditions: compound 0.5 µM; ATP 10 µM
Sequence (Q13153 whole entry, looked up): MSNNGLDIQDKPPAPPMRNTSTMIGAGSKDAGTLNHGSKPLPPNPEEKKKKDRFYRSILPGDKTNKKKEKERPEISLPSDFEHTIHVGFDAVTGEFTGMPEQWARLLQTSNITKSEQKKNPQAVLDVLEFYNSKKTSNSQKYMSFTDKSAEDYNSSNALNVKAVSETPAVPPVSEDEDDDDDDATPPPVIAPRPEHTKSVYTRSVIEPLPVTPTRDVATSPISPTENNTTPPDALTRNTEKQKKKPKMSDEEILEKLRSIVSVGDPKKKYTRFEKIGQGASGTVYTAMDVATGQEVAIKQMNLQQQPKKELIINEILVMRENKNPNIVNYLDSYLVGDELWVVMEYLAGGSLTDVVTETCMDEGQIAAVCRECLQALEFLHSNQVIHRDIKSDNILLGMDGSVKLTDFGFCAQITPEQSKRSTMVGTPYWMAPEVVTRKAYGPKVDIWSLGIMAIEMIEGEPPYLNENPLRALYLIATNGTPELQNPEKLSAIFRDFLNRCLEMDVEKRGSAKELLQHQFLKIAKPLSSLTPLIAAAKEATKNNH

| SMILES | residual activity [%] |
| --- | --- |
| Nc1ncnc2c1cnn2-c1ccccc1 | 94.2 |
| O=C(c1ccccc1)c1ccc(N2CCOCC2)cc1O | 91.8 |
| c1ccc(-c2cnc(Nc3ccc(OCCN4CCCC4)cc3)s2)cc1 | 97 |

target: PASK (human) (UniProt Q96RG2); assay: as above; conditions: compound 0.5 µM; ATP 10 µM
Sequence (Q96RG2 whole entry, looked up): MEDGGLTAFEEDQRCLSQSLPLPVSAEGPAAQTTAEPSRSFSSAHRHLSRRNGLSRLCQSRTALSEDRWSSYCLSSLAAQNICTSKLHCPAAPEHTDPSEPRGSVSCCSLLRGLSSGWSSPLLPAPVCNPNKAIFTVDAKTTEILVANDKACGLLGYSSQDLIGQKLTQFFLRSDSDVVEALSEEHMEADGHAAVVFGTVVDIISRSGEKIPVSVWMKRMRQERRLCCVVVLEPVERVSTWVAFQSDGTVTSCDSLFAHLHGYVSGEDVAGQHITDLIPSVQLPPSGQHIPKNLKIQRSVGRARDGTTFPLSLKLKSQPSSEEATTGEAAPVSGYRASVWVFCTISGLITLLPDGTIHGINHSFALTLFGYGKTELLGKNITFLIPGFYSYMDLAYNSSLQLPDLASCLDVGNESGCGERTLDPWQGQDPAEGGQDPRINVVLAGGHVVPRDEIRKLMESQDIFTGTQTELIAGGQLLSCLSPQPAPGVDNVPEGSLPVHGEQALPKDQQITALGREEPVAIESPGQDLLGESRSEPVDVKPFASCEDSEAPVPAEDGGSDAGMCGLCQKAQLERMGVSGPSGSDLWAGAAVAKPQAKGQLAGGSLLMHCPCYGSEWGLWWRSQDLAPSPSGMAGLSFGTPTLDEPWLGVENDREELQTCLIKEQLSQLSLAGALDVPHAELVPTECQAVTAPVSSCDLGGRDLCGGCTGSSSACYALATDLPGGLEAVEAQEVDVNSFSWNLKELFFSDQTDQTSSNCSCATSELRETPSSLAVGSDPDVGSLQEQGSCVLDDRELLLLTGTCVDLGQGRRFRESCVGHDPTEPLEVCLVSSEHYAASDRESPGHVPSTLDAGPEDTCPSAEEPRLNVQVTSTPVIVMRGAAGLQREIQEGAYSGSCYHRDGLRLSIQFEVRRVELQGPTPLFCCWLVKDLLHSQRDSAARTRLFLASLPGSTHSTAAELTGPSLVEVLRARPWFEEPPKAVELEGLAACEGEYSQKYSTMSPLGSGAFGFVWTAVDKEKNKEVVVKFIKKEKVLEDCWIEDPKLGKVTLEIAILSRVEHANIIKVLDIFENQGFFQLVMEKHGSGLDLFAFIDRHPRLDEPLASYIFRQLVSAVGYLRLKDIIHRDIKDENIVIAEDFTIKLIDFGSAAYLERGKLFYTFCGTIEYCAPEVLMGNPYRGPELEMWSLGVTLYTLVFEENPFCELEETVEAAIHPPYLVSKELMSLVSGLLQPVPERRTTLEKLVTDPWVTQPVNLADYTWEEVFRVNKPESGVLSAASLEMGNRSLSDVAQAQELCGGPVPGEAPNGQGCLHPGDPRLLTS

| SMILES | residual activity [%] |
| --- | --- |
| Nc1ncnc2c1cnn2-c1ccccc1 | 96.8 |
| O=C(c1ccccc1)c1ccc(N2CCOCC2)cc1O | 94.3 |
| c1ccc(-c2cnc(Nc3ccc(OCCN4CCCC4)cc3)s2)cc1 | 96.4 |

target: PIM3 (human) (UniProt Q86V86); assay: as above; conditions: compound 0.5 µM; ATP 10 µM

| SMILES | residual activity [%] |
| --- | --- |
| Nc1ncnc2c1cnn2-c1ccccc1 | 91.4 |
| O=C(c1ccccc1)c1ccc(N2CCOCC2)cc1O | 98.9 |
| c1ccc(-c2cnc(Nc3ccc(OCCN4CCCC4)cc3)s2)cc1 | 120 |

target: PLK1 (human) (UniProt P53350); assay: as above; conditions: compound 0.5 µM; ATP 10 µM

| SMILES | residual activity [%] |
| --- | --- |
| Nc1ncnc2c1cnn2-c1ccccc1 | 98.9 |
| O=C(c1ccccc1)c1ccc(N2CCOCC2)cc1O | 104 |
| c1ccc(-c2cnc(Nc3ccc(OCCN4CCCC4)cc3)s2)cc1 | 101 |

target: PRKCB1 (human) (UniProt P05771); assay: as above; conditions: compound 0.5 µM; ATP 10 µM

| SMILES | residual activity [%] |
| --- | --- |
| Nc1ncnc2c1cnn2-c1ccccc1 | 95.2 |
| O=C(c1ccccc1)c1ccc(N2CCOCC2)cc1O | 90.1 |
| c1ccc(-c2cnc(Nc3ccc(OCCN4CCCC4)cc3)s2)cc1 | 108 |

target: ROS1 (human) (UniProt P08922); assay: as above; conditions: compound 0.5 µM; ATP 10 µM
Sequence (P08922 whole entry, looked up): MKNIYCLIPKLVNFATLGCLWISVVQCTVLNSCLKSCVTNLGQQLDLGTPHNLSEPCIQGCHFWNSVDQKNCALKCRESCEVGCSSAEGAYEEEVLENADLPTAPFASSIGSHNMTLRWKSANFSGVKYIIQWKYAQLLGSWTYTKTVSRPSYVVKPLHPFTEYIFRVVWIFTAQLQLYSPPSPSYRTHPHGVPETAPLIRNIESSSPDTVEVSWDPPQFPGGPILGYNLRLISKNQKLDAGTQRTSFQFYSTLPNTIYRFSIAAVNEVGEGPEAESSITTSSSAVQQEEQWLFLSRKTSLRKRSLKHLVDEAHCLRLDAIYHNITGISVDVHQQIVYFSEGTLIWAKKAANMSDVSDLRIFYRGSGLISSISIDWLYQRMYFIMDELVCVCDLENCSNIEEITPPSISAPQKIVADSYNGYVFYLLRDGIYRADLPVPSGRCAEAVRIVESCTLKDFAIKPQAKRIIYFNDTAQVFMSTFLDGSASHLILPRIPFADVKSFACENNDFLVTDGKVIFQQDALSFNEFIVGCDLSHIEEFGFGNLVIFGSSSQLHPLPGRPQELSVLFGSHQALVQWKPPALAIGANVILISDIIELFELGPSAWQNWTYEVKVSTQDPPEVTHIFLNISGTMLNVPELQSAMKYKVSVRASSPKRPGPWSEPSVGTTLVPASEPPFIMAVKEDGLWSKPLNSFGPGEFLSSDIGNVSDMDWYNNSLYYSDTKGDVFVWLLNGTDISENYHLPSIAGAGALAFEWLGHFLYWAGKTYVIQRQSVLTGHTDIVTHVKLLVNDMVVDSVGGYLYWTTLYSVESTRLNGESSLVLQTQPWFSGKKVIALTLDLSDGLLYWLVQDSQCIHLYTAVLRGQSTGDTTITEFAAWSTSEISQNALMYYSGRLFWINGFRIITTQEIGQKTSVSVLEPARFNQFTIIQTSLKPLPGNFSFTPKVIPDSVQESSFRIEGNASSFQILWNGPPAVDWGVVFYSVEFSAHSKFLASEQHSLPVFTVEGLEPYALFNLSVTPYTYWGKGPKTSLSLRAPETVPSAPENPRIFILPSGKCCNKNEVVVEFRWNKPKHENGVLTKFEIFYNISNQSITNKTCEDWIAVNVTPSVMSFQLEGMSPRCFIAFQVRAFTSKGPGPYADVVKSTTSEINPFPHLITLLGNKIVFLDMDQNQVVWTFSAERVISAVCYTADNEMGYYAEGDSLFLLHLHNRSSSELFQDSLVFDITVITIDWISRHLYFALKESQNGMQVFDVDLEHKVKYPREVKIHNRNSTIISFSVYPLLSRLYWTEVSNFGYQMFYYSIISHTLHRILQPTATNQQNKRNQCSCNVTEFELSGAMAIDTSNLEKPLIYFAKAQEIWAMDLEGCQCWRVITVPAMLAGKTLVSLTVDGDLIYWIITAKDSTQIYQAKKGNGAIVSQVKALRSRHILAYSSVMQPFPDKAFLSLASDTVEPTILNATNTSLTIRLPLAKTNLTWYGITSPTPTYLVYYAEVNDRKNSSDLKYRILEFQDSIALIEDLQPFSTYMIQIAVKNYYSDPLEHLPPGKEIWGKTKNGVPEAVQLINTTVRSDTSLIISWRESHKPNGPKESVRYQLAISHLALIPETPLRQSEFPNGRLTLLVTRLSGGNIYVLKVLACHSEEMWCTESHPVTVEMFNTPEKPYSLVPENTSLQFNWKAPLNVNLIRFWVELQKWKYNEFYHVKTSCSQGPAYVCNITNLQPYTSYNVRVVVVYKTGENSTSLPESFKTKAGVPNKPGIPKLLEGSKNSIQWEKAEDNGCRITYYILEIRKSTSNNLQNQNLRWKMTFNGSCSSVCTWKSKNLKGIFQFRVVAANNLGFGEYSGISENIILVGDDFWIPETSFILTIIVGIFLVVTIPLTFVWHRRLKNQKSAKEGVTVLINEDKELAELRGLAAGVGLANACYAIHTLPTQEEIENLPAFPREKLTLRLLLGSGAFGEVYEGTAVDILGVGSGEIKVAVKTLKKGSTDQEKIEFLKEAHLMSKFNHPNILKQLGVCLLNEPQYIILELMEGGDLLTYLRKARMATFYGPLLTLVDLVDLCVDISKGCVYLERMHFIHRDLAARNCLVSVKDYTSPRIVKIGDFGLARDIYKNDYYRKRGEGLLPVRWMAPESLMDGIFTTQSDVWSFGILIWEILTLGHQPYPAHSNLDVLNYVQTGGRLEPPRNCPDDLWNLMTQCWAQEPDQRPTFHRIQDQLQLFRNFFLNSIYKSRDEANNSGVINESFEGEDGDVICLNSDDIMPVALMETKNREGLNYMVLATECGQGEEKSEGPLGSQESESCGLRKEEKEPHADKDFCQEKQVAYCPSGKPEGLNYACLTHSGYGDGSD

| SMILES | residual activity [%] |
| --- | --- |
| Nc1ncnc2c1cnn2-c1ccccc1 | 94.2 |
| O=C(c1ccccc1)c1ccc(N2CCOCC2)cc1O | 96 |
| c1ccc(-c2cnc(Nc3ccc(OCCN4CCCC4)cc3)s2)cc1 | 96.9 |

target: RPS6KA1 KD1 KD2 (human) (UniProt Q15418); assay: as above; conditions: compound 0.5 µM; ATP 10 µM

| SMILES | residual activity [%] |
| --- | --- |
| Nc1ncnc2c1cnn2-c1ccccc1 | 79.5 |
| O=C(c1ccccc1)c1ccc(N2CCOCC2)cc1O | 96.2 |
| c1ccc(-c2cnc(Nc3ccc(OCCN4CCCC4)cc3)s2)cc1 | 78 |

target: RPS6KA4 KD2 (human) (UniProt O75676); assay: as above; conditions: compound 0.5 µM; ATP 10 µM

| SMILES | residual activity [%] |
| --- | --- |
| Nc1ncnc2c1cnn2-c1ccccc1 | 106 |
| O=C(c1ccccc1)c1ccc(N2CCOCC2)cc1O | 105 |
| c1ccc(-c2cnc(Nc3ccc(OCCN4CCCC4)cc3)s2)cc1 | 96.1 |

target: RPS6KA5 KD2 (human) (UniProt O75582); assay: as above; conditions: compound 0.5 µM; ATP 10 µM

| SMILES | residual activity [%] |
| --- | --- |
| Nc1ncnc2c1cnn2-c1ccccc1 | 89 |
| O=C(c1ccccc1)c1ccc(N2CCOCC2)cc1O | 102 |
| c1ccc(-c2cnc(Nc3ccc(OCCN4CCCC4)cc3)s2)cc1 | 104 |

target: SLK (human) (UniProt Q9H2G2); assay: as above; conditions: compound 0.5 µM; ATP 10 µM

| SMILES | residual activity [%] |
| --- | --- |
| Nc1ncnc2c1cnn2-c1ccccc1 | 98 |
| O=C(c1ccccc1)c1ccc(N2CCOCC2)cc1O | 106 |
| c1ccc(-c2cnc(Nc3ccc(OCCN4CCCC4)cc3)s2)cc1 | 96.7 |

target: SRPK3 (human) (UniProt Q9UPE1); assay: as above; conditions: compound 0.5 µM; ATP 10 µM

| SMILES | residual activity [%] |
| --- | --- |
| Nc1ncnc2c1cnn2-c1ccccc1 | 96.4 |
| O=C(c1ccccc1)c1ccc(N2CCOCC2)cc1O | 103 |
| c1ccc(-c2cnc(Nc3ccc(OCCN4CCCC4)cc3)s2)cc1 | 98.2 |

target: STK17A (human) (UniProt Q9UEE5); assay: as above; conditions: compound 0.5 µM; ATP 10 µM

| SMILES | residual activity [%] |
| --- | --- |
| Nc1ncnc2c1cnn2-c1ccccc1 | 102 |
| O=C(c1ccccc1)c1ccc(N2CCOCC2)cc1O | 97.9 |
| c1ccc(-c2cnc(Nc3ccc(OCCN4CCCC4)cc3)s2)cc1 | 66.2 |

target: TAOK3 (human) (UniProt Q9H2K8); assay: as above; conditions: compound 0.5 µM; ATP 10 µM

| SMILES | residual activity [%] |
| --- | --- |
| Nc1ncnc2c1cnn2-c1ccccc1 | 89.1 |
| O=C(c1ccccc1)c1ccc(N2CCOCC2)cc1O | 99 |
| c1ccc(-c2cnc(Nc3ccc(OCCN4CCCC4)cc3)s2)cc1 | 87.4 |

target: TXK (human) (UniProt P42681); assay: as above; conditions: compound 0.5 µM; ATP 10 µM
Sequence (P42681 whole entry, looked up): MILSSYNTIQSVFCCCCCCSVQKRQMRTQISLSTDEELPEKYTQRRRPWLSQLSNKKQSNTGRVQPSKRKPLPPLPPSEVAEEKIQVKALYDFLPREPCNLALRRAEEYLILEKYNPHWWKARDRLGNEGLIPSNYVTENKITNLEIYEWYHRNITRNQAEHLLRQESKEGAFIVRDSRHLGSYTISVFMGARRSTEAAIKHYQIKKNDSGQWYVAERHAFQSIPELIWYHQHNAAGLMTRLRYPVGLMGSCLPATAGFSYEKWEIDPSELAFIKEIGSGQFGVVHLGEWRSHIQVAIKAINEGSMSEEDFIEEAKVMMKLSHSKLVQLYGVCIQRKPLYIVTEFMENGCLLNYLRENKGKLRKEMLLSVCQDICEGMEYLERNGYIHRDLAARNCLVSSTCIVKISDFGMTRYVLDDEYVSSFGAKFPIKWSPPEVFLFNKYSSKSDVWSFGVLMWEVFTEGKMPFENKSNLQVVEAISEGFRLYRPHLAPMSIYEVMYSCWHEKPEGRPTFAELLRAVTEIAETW

| SMILES | residual activity [%] |
| --- | --- |
| Nc1ncnc2c1cnn2-c1ccccc1 | 94.8 |
| O=C(c1ccccc1)c1ccc(N2CCOCC2)cc1O | 98.5 |
| c1ccc(-c2cnc(Nc3ccc(OCCN4CCCC4)cc3)s2)cc1 | 91.1 |

target: TYRO3 (human) (UniProt Q06418); assay: as above; conditions: compound 0.5 µM; ATP 10 µM

| SMILES | residual activity [%] |
| --- | --- |
| Nc1ncnc2c1cnn2-c1ccccc1 | 102 |
| O=C(c1ccccc1)c1ccc(N2CCOCC2)cc1O | 101 |
| c1ccc(-c2cnc(Nc3ccc(OCCN4CCCC4)cc3)s2)cc1 | 90.9 |

target: WNK2 (human) (UniProt Q9Y3S1); assay: as above; conditions: compound 0.5 µM; ATP 10 µM

| SMILES | residual activity [%] |
| --- | --- |
| Nc1ncnc2c1cnn2-c1ccccc1 | 114 |
| O=C(c1ccccc1)c1ccc(N2CCOCC2)cc1O | 100 |
| c1ccc(-c2cnc(Nc3ccc(OCCN4CCCC4)cc3)s2)cc1 | 119 |
